From US4278595A, “Orally active MIF analogs with an effect on the central nervous system” (Vega Laboratories, Inc., priority 1979, dated 1981)
Where a SMILES comes first, the peptide text is derived from it. [ ]: non-standard residue; d: D form. pGlu = O=C1CC[C@@H](C(=O)O)N1

Tests used:
Format in all cases: in vivo, rat
[1] = test system: male Sprague-Dawley rats with unilateral 6-hydroxy-Dopamine lesion in the substantia nigra; experiment: Duration of L-DOPA-reversed rotational behavior in rats with unilateral 6-hydroxy-Dopamine lesion of the substantia nigra (third series)
Protocol: The MIF analogs were tested for "Parkinsonion" locomotor behavior response by three different test procedures. In the third series of tests, male Sprague-Dawley rats received a unilateral chemical lesion (by injection of 6-hydroxy-Dopamine) in the substantia nigra, which is followed by rotational movement. When L-DOPA is given i.p. (in two doses, 13 and 26 mg/kg) the direction of rotational movement is reversed, and the duration of the reversed rotational motion was measured in minutes. The same doses of L-DOPA were then given in the experimental groups in combination with 2 mg/kg of either MIF or the MIF analogs, all i.p., or by gastric tube in a dose of 4 mg/kg, and the duration, in minutes, of reversed rotational behavior was observed.

[2] = test system: reserpinized male Long-Evans rats; experiment: Locomotor activity of reserpinized rats after intraventricular administration (first series); conditions: rats reserpinized i.p. 10 mg/kg
Protocol: (§1) The MIF analogs were tested for "Parkinsonion" locomotor behavior response by three different test procedures.
In the first series of tests, male Long-Evans rats were prepared with a cannula fixed from the exterior to the lateral ventricle for direct intraventricular administration. The rats were reserpinized i.p. (10 mg/kg), and then MIF or MIF analogs, were given directly into the CSF. Activity of the rats was measured in counts/10 minutes with a digital printout activity meter (Columbus Instruments, model PB 5244, Columbus, Ohio). The results of these tests are as follows

[3] = test system: reserpinized male Long-Evans rats; experiment: L-DOPA potentiation: locomotor activity of reserpinized rats given agent i.p. with Carbi-DOPA and L-DOPA (second series); conditions: 2 mg/kg i.p. with 10 mg/kg Carbi-DOPA and 100 mg/kg L-DOPA
Protocol: as §1
In the second series of tests, male Long-Evans rats prepared and reserpinized as described for the first series, were treated i.p. with 2 mg/kg of MIF or MIF analog, 10 mg/kg of Carbi-DOPA, a competitive inhibitor of DOPA-decarboxylase (to prolong the L-DOPA effect), and 100 mg/kg of L-DOPA. The control group received the latter two substances, but no MIF or MIF analog. Activity of the rats was measured, in counts/10 minutes with a digital printout activity meter, at 15, 35, 55, 75, 95 and 105 minutes after injection.

[4] = Injection: L-DOPA i.p. (13 and 26 mg/kg) alone or in combination with 2 mg/kg MIF or analog i.p.
[5] = Oral: L-DOPA i.p. (13 and 26 mg/kg) alone or in combination with 4 mg/kg MIF or analog by gastric tube
[6] = 10 ng directly into the CSF (lateral ventricle)
[7] = 100 ng directly into the CSF (lateral ventricle)

SMILES | Duration of Reversed Rotational Behavior [1, 4] | Duration of Reversed Rotational Behavior [1, 5] | % Increase in Activity, Counts/10 Minutes [2, 6] | % Increase in Activity, Counts/10 Minutes [2, 7] | % Increase in Activity, counts/10 min. ([3]; 15 min. after injection) | % Increase in Activity, counts/10 min. ([3]; 35 min. after injection) | % Increase in Activity, counts/10 min. ([3]; 55 min. after injection) | % Increase in Activity, counts/10 min. ([3]; 75 min. after injection) | % Increase in Activity, counts/10 min. ([3]; 95 min. after injection) | % Increase in Activity, counts/10 min. ([3]; 105 min. after injection)
N[C@@H](Cc1ccc(O)c(O)c1)C(=O)O [L-DOPA] | 38 ± 3.4 min | 38 ± 3.4 min | – | – | – | – | – | – | – | –
CC(C)C[C@H](NC(=O)[C@@H]1CCCN1)C(=O)NCC(N)=O [MIF, Pro--L--Leu--Gly--NH2, reference compound] (H-Pro-Leu-Gly-NH2) | 55 ± 6.2 min | 58 ± 5.3 min | No effect | No effect | – | – | – | – | – | –
CC(C)C[C@@H](NC(=O)[C@@H]1CCC(=O)N1)C(=O)NCC(N)=O [pGlu--D--Leu--Gly--NH2] ([pGlu]-[dL]-Gly-NH2) | 96 ± 7.9 min | 110 ± 9.3 min | 240% | 360% | 126% | 538% | 2450% | 2036% | 1035% | 478%
